According to patent publication US20220194918A1, “PLEUROMULIN LIPOIC ACID ESTER WITH ANTIBACTERIAL ACTIVITY AND A METHOD OF PREPARING THE SAME” (SHAANXI UNIVERSITY OF SCIENCE AND TECHNOLOGY, priority 2020, published 2022):

What was measured:
Type in all cases: cell-based
[1] = test system: multi-resistant Staphylococcus aureus 18-222; assay: Paper diffusion drug sensitivity test, multi-resistant Staphylococcus aureus 18-222; details: for Zone of inhibition: Multi-resistant Staphylococcus aureus 18-222, 30 μg/tablet paper disc, LB plate, 37° C., 24 h; for inhibitory effect (in words): multi-drug resistant Staphylococcus aureus 18-222, FIGS. 1-3 and Table 1
Experimental: (§1) The antimicrobial efficacy was determined by a paper diffusion drug sensitivity test.
(§2) Experimental strains: multi-resistant Staphylococcus aureus 18-206, multi-resistant Staphylococcus aureus 18-222, multi-resistant Staphylococcus aureus 18-596. The experimental strain was identified by Huashan Hospital Affiliated to Fudan University (Institute of Antibiotic of Fudan University).
(§3) Drug sensitive paper: The drug sensitive paper is a special drug sensitive paper with a diameter of 6.35 mm and a water absorption of 0.02 mL. The control drug was vancomycin (30μg/tablet); the test drugs were pleuromulin (30 μg/tablet), lipoic acid (30 μg/tablet) and pleuromulin lipoic acid ester (30 μg/tablet).
(§4) Reagents: LB agar medium, LA broth medium, 0.5% DMSO solution.
(§5) The experimental strains were inoculated in non-selective medium and placed in air at 37° C. for 24 h. Pick a single colony that grows well and inoculate it into broth medium, incubate at 35° C.±2° C. for 6 hours, and use LA broth medium to calibrate the concentration of the bacterial solution to 0.5 Mie turbidimetric tube (1.5×10^8 CFU/mL). A bacterial suspension is obtained.
(§6) Weigh the LB dry powder, sterilize at 103.4 Kpa, 121.3° C. high-pressure steam for 15 min, and then put it in a 40° C.-50° C. water bath. Place a sterile empty plate (inner diameter 9 cm) on the surface of the ultra-clean table water table, shake and shake LB, and then pour the plate. The thickness of each plate is 3 mm to 4 mm. After the plate is cooled at room temperature, store it in the refrigerator at 2° C.-8° C. Use a sterile cotton swab to dip the bacterial solution, and evenly coat the surface of the LB plate 3 times. After inoculation of the bacterial suspension, the LB plate was dried at room temperature for 3 min to 5 min. Use sterile forceps to closely attach the antibacterial drug paper to the dish. Put the dish upside down and place it in a 37° C. incubator for 24 h. Observe the result and measure the diameter. Taking 0.5% DMSO solution as a negative control, the antibacterial activity is expressed by the diameter of the inhibition zone. The inhibition zone 17 mm, sensitive; the inhibition zone is 15 mm-16 mm, intermediary; the inhibition zone 14 mm, drug resistance.

[2] = test system: multi-resistant Staphylococcus aureus 18-206; assay: Paper diffusion drug sensitivity test, multi-resistant Staphylococcus aureus 18-206; details: for Zone of inhibition: Multi-resistant Staphylococcus aureus 18-206, 30 μg/tablet paper disc, LB plate, 37° C., 24 h; for inhibitory effect (in words): multi-drug resistant Staphylococcus aureus 18-206, FIGS. 1-3 and Table 1
Experimental: as §1, §2, §3, §4, §5, §6

[3] = test system: multi-resistant Staphylococcus aureus 18-596; assay: Paper diffusion drug sensitivity test, multi-resistant Staphylococcus aureus 18-596; details: for Zone of inhibition: Multi-resistant Staphylococcus aureus 18-596, 30 μg/tablet paper disc, LB plate, 37° C., 24 h; for inhibitory effect (in words): multi-drug resistant Staphylococcus aureus 18-596, FIGS. 1-3 and Table 1
Experimental: as §1, §2, §3, §4, §5, §6

| Structure (SMILES) | Zone of inhibition [1] [mm] | inhibitory effect (in words) [1] | Zone of inhibition [2] [mm] | inhibitory effect (in words) [2] | Zone of inhibition [3] [mm] | inhibitory effect (in words) [3] | diameter of bacteriostatic zone ([3]; multidrug resistant Staphylococcus aureus 18-596) |
| --- | --- | --- | --- | --- | --- | --- | --- |
| O=C(O)CCCC[C@@H]1CCSS1 (racemic) [Lipoic acid] | 0 | no inhibitory effect | 0 | no inhibitory effect | 0 | no inhibitory effect | – |
| C=C[C@]1(C)C[C@@H](OC(=O)COC(=O)CCCCC2CCSS2)[C@]2(C)CC[C@@H](C)[C@@]3(CCC(=O)[C@@H]23)[C@@H](C)[C@@H]1O (stereo partly drawn) [Pleuromulin lipoic acid ester, 2-(((3aS,4R,5S,6S, 8R,9R,9aR,12R)-5-hydroxy-4,6,9,12-tetramethyl-1-oxo-6-vinyldecahydro-3 a, 9-propanocyclopenta[8]annulen-8-yl)oxy)-2-oxoethyl 5-(1,2-dithiolan-3-yl)pentanoate] | 16 | strong inhibitory effects | 16 | strong inhibitory effects | 20 | strong inhibitory effects | up to 21 mm |
| CN[C@H](CC(C)C)C(=O)N[C@H]1C(=O)N[C@@H](CC(N)=O)C(=O)N[C@H]2C(=O)N[C@H]3C(=O)N[C@H](C(=O)N[C@H](C(=O)O)c4cc(O)cc(O)c4-c4cc3ccc4O)[C@H](O)c3ccc(c(Cl)c3)Oc3cc2cc(c3O[C@@H]2O[C@H](CO)[C@@H](O)[C@H](O)[C@H]2O[C@H]2C[C@](C)(N)[C@H](O)[C@H](C)O2)Oc2ccc(cc2Cl)[C@H]1O [Vancomycin] | 18 | – | 17 | – | 21 | – | – |
| C=C[C@]1(C)C[C@@H](OC(=O)CO)[C@]2(C)[C@H](C)CC[C@]3(CCC(=O)[C@H]32)[C@@H](C)[C@@H]1O [Pleuromulin] | 0 | no inhibitory effect | 0 | no inhibitory effect | 0 | no inhibitory effect | – |
